The text below walks through data of article PMC11026403 (Communications Biology, 2024).

For the experiment, the target named is A/Denmark/524/2009 (H1N1)pdm09 NA-H274 (Influenza A virus, UniProt C3W5S3). Type of experiment: biochemical.

Molecules are shown by their SMILES.

In general, IC50 refers to the concentration that inhibits the measured activity by half. Low readings indicate greater potency, high ones weaker potency. `CCC(CC)[C@H](NC(C)=O)[C@@H]1[C@H](O)[C@@H](C(=O)O)C[C@H]1N=C(N)N` [peramivir] had an IC50 of 0.1 nM.
